Key:
Vero E6 [1] = assay: cytotoxicity CC50 (uninfected Vero E6, ATP content); higher = less cytotoxic; details: virus: none (uninfected); 72 h
Description: (§1)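 Read-out is CellTiter-Glo ATP luminescence, normalised to DMSO-only wells (0% rescue) and no-virus wells (100% rescue). The cytotoxicity counter-assay used the same protocol without virus, normalised to DMSO (100% viability) and hyamine (0% viability). Confirmation used 8-point 1:3 titrations in duplicate, fitted to a four-parameter Hill equation.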

Vero E6 [2] = assay: cytotoxicity maximal efficacy (% viability loss, DMSO = 0%, hyamine = 100%); higher = more cytotoxic; details: virus: none (uninfected); 72 h
Description: as §1

Vero E6 [3] = assay: CPE rescue EC50 (SARS-CoV-2 infected Vero E6); higher = less potent antiviral; details: virus: SARS-CoV-2 USA_WA1/2020, MOI 0.002; 72 h
Description: as §1

Compound | cytotoxicity CC50 (Vero E6 [1]) | cytotoxicity maximal efficacy (Vero E6 [2]) | CPE rescue EC50 (Vero E6 [3])
Cn1cc(-c2ccc(-c3cncc(Cl)c3N3CCC4(CCNC4=O)CC3)cc2)cn1 | 282 nM | – | –
CCOc1ccc(-c2nc(-c3cccc4c3CCC4NCCO)no2)cc1OCC (stereo unspecified) | 631 nM | – | –
O=C(c1ccc(-c2ccc(Cl)cc2)o1)N(Cc1ccccn1)c1ccc(N2CCNCC2)cc1 | 11200 nM | 95.2% | –
COc1ccccc1OCCNCC(O)CCOc1cccc2[nH]c3ccccc3c12 (stereo unspecified) | 10000 nM | 16.2% | –
COc1c(C)cnc(Cn2cnc3c(Cl)nc(N)nc32)c1C | 355 nM | – | –
C[C@@H]1O[C@@H](O[C@H]2[C@H](OC(=O)[C@]34CCC(C)(C)C[C@H]3C3=CCC5[C@@]6(C)CC[C@H](O[C@@H]7O[C@H](CO[C@@H]8OC[C@H](O)[C@H](O)[C@H]8O)[C@@H](O)[C@H](O)[C@H]7O)C(C)(C)C6CC[C@@]5(C)[C@]3(C)C[C@H]4O)OC[C@@H](O)[C@@H]2O)[C@H](O)[C@H](O)[C@H]1O[C@@H]1OC[C@H](O)[C@H](O[C@@H]2OC[C@@H](O)[C@H](O)[C@H]2O)[C@H]1O (stereo partly specified) | – | – | 602 nM
CC(C)[C@H]1C(=O)N[C@H](CO)Cc2c[nH]c3cccc(c23)N1C | 1240 nM | 20.4% | –
CO/C1=C\C(C)=C\[C@@H](C)[C@@H](O)[C@@H](C)C/C(C)=C/C=C\[C@H](OC)C([C@@H](C)[C@@H](O)[C@H](C)[C@@]2(O)C[C@@H](O)[C@H](C)C(C(C)C)O2)OC1=O (stereo partly specified) | 101 nM | – | –
O=c1cc(-c2cccc3c2Sc2ccccc2S3)oc(N2CCOCC2)c1 | 10000 nM | 42.6% | –
COC(=O)[C@@]12OC[C@]34[C@H]([C@@H](O)[C@@H]1O)[C@@]1(C)CC(=O)C(O)=C(C)[C@@H]1C[C@H]3OC(=O)[C@H](OC(=O)/C=C(\C)C(C)C)[C@@H]24 | 142 nM | – | –
CC(C)(C[C@@](O)(Cc1cc2ccncc2[nH]1)C(F)(F)F)c1cc(F)ccc1O | 15800 nM | 22.4% | –
CN(C)c1cc2c(cc1Sc1nc3c(N)nccc3n1CCNCC(C)(C)C)OCO2 | 708 nM | – | –
OC1CCC(Oc2cccc3cnc(Nc4ccc5nc[nH]c5c4)nc23)CC1 (stereo unspecified) | 891 nM | 50.5% | –
Cn1cc(S(=O)(=O)c2ccc(Cl)cc2)c2cccc(N3CCNCC3)c21 | 11200 nM | 48.3% | –
Cn1c(Nc2ccc(C(F)(F)F)cc2)nc2cc(Oc3ccnc(-c4ncc(C(F)(F)F)[nH]4)c3)ccc21 | 316 nM | – | 794 nM
OCCCNc1cc(-c2ccnc(Nc3cccc(Cl)c3)n2)ccn1 | 112 nM | – | –
c1ccc(-c2ccc(CNc3nc(-c4ccccn4)nnc3-c3ccccc3)cc2)cc1 | 562 nM | – | 631 nM
CCc1ccc(/C=C2/SC(=S)NC2=O)cc1 | 12600 nM | 34.2% | –
CC(C)(N)c1ccc(-c2nc3ccccc3nc2-c2ccccc2)cc1 | 12600 nM | 34.2% | –
CC(C)C(=O)O[C@H]1[C@@H]2[C@H](C)C(=O)O[C@@H]2C[C@@H](C)[C@@H]2C=CC(=O)[C@]21C | 12600 nM | 34.2% | –
C(=N\Nc1nc(Nc2ccccc2)nc(N2CCOCC2)n1)/c1c[nH]c2ccccc12 | – | – | 113 nM
O[C@H]1[C@H]2c3cc4c(cc3CN3CCC(=C[C@@H]1O)[C@H]23)OCO4 | – | – | 631 nM
C/C=C(\C)C(=O)OC1C(C)C2(O)C3C=C(C)C(=O)C3CC(CO)=CC2C2C(C)(C)C12OC(C)=O (stereo unspecified) | 348 nM | – | –
COC[C@H]1OC(=O)/C(=C/N(C)CCCN(C)C)C2=C(O)C(=O)C3=C([C@H](OC(C)=O)C[C@]4(C)[C@@H](O)CC[C@@H]34)[C@]21C | 8910 nM | 62.1% | –

Compound | cytotoxicity CC50 (Vero E6 [1]) | cytotoxicity maximal efficacy (Vero E6 [2]) | CPE rescue EC50 (Vero E6 [3])
C[C@@H]1O[C@@H](O[C@H]2[C@H](OC(=O)[C@]34CCC(C)(C)C[C@H]3C3=CCC5[C@@]6(C)CC[C@H](O[C@@H]7O[C@H](CO[C@@H]8OC[C@H](O)[C@H](O)[C@H]8O)[C@@H](O)[C@H](O)[C@H]7O)C(C)(C)C6CC[C@@]5(C)[C@]3(C)C[C@H]4O)OC[C@@H](O)[C@@H]2O)[C@H](O)[C@H](O[C@@H]2OC[C@](O)(CO)[C@H]2O)[C@H]1O[C@@H]1OC[C@H](O)[C@H](O[C@@H]2OC[C@@H](O)[C@H](O)[C@H]2O)[C@H]1O (stereo partly specified) | – | – | 955 nM
O=S(=O)(Cc1ccccc1)Nc1ccc(-c2ccc3c(cnn3-c3ccc(F)cc3)c2)c(C(F)(F)F)c1 | 14100 nM | 24.3% | –
COc1ccc2sc(NC(c3ccc(OC(F)F)cc3)c3ccc4cccnc4c3O)nc2c1 (stereo unspecified) | 708 nM | – | 891 nM
CCC(C)C(=O)OC12C(OC(C)=O)C(C)C3(O)C(C=C(CO)CC4(O)C(=O)C(C)=CC43)C1C2(C)C (stereo unspecified) | – | – | 982 nM
CN(CCCNC(=O)c1ccc2nc3c(c(Cl)c2c1)CCCC3)Cc1ccccc1 | 12600 nM | 39.1% | –
C/C(=N\Nc1nnc2c(n1)[nH]c1c(C)cccc12)c1ccccn1 | 355 nM | 76.3% | –
CN(CCc1ccc(Nc2ncc(-c3cccnc3)s2)cc1)Cc1ccccc1 | 12600 nM | 44.4% | –
COc1ccc(-c2csc(NC(=O)[C@H]3CCCCN3S(=O)(=O)c3ccc(C)cc3)n2)cc1 | 2000 nM | – | –
COCCN1CCN(Cc2ccc(-c3n[nH]c4c3C(=O)c3c(NC(=O)NN5CCOCC5)cccc3-4)cc2)CC1 | 316 nM | – | –
CC(C)C[C@H](NC(=O)[C@H](Cc1ccccc1)NC(=O)OCc1ccccc1)C(=O)C=O | 11200 nM | 33.4% | –
CC1(C)CC(=O)c2c(C(F)(F)F)nn(-c3ccc(C(N)=O)c(N[C@H]4CC[C@H](OC(=O)CN)CC4)c3)c2C1 | 562 nM | – | –
O=S(=O)(NCC1CC1)c1ccc(Nc2nccc(N3CCCc4cc(O)ccc43)n2)cc1 | – | – | 794 nM
NC(=O)c1ccccc1Nc1ccnc(Nc2cccc(O)c2)n1 | 1000 nM | – | –
CC(=NNC(=S)N1CCC1)c1ccccn1 | 355 nM | – | –
CC(=O)c1c(OCCN2CCCCC2)c(OCCC(C)c2ccc(F)cc2)c2oc(C)nc2c1C (stereo unspecified) | 14100 nM | 33.2% | –
CC(=O)OC[C@]12C[C@H](OC(=O)CC(C)C)C(C)=C[C@H]1O[C@@H]1[C@H](O)[C@@H](O)[C@@]2(C)[C@]12CO2 | 127 nM | – | –
C[C@@H]1O[C@@H](O[C@@H]2[C@@H](O)[C@H](O[C@@H]3[C@@H](O)[C@@H](O)[C@H](O[C@H]4[C@H](OC(=O)[C@]56CCC(C)(C)C[C@H]5C5=CCC7[C@@]8(C)C[C@H](O)[C@H](O[C@@H]9O[C@@H](C)[C@H](O)[C@@H](O)[C@H]9O)[C@@](C)(CO)C8CC[C@@]7(C)[C@]5(C)C[C@H]6O)O[C@H](C)[C@H](O)[C@@H]4O)O[C@H]3C)OC[C@H]2O)[C@H](O)[C@H](O)[C@H]1O (stereo partly specified) | – | – | 851 nM
c1ccc2c(-c3cnn4cc(-c5ccc(OCCN6CCOCC6)cc5)cnc34)ccnc2c1 | 5520 nM | 29.1% | –
C/C(=N\NC(=O)c1cccc(S(=O)(=O)N2CCOCC2)c1)c1cc(Cl)ccc1O | 1000 nM | – | –
N#Cc1ccc(O[C@@H]2c3ccccc3C[C@H]2N2CCC[C@@H](N)C2)c(Cl)c1 | 12600 nM | 52.9% | –
O=C(O)c1ccc(CCCc2ccc(OCCc3ccc(F)cc3)cc2)o1 | – | – | 141 nM
COc1ccc2c(Oc3ccc(NC(=O)c4c(C)n(CC(C)(C)O)n(-c5ccccc5)c4=O)cc3F)ccnc2c1 | 14100 nM | 70.3% | –
CCC[C@@H](C=O)NC(=O)[C@H](CC(C)C)NC(=O)[C@H](CC(C)C)NC(=O)OCc1ccccc1 | 1130 nM | 115% | –
